Like-named read-outs stand apart in the source and are kept apart here. *1 amine or outer side, *2 acyl side, *3 side chain or, on linkers, in order; H or OH if unused. Where a SMILES comes first, the peptide text is derived from it. Side-chain parts run from the residue outwards. [ ]: non-standard residue; d: D form. The star is where a group is joined. γGlu = O=C(O)[C@H](CCC(=O)[*:2])N[*:1]; Palmitoyl = CCCCCCCCCCCCCCCC(=O)*; Aib = CC(C)(N)C(=O)O
What was measured:
[1] = molecular target: T1, human glucagon receptor (Glucagon-R) (Homo sapiens, UniProt P47871); assay: Glucagon receptor efficacy assay (cAMP AlphaScreen, CHO cells); format: cell-based; details: Table 1A; CHO cells expressing human Glucagon-R, cAMP; read-out: EC50 hGCGR CHO-K1
T1 construct: expressed in transfected cells
Summary of the method: (§1)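 Stably transfected CHO clones expressing human GLP-1R or glucagon receptor were treated with increasing peptide concentrations for 15 min at room temperature in KRBH containing 0.1 mM IBMX. After lysis, cAMP was quantified by AlphaScreen; EC50 and efficacy relative to GLP-1 or glucagon reference came from curve fitting.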

[2] = Pharmacokinetic parameters after subcutaneous and intravenous administration to mice; format: in vivo; details: male, mouse, plasma, 20 nmol/kg, C57Bl/6J mice; for half-life: read-out: Terminal half life (converted)
Experimental: Pharmacokinetic parameters of the test compounds were determined after subcutaneous and intravenous administration to C57Bl/6J mice.
8 week old male C57Bl/6J mice were obtained from Taconic (Denmark) weighing approximately 20-25 g at time of arrival at the test facility. The mice were caged in European standard cages type III with light cycle of 12-hour dark and 12-hour light (lights on 06.00). Both diet, Altromin 1324 (Altromin, Germany), and water was administered ad libitum during the whole experimental period. The 8-11 week animals were imported to the laboratory at least 7 days before the start up of the experimental procedure in order to assure proper acclimatization. After sampling the mice were euthanized by cervical dislocation.
The compounds were first dissolved in 0.096% aqueous ammonia to a nominal concentration of 2 mg/ml, and then diluted to the desired dosing strength (4 μM) in sterile PBS containing 25 mM phosphate buffer, pH 7.4. Subcutaneous and intravenous injections corresponding to 20 nmol/kg were given. The GLP-1-glucagon dual agonists were administered for subcutaneous dosing in the neck region and via a lateral tail vein for intravenous dosing.
Blood samples (250 μl) were collected from the periorbital plexus at time points 0.5, 2, 4, 6, 12, 16, 20, 24 h for subcutaneous and 10, 30 min, 3, 6, 12, 18, 24 h for intravenous administration into ice-chilled K3EDTA tubes and centrifuged for 5 minutes at 4° C. within 20 minutes of sampling. Plasma (>100 μl) was separated to ice-chilled Micronic tubes, immediately frozen, and kept at −70° C. until analysed for plasma concentration for the respective GLP-1-glucagon compound using LC-MS/MS. Individual plasma concentration-time profiles were analysed by a non-compartmental approach in WinNonLin v6.3 (Pharsight inc, Mountain View, Calif., USA), and the resulting pharmacokinetic parameters determined.

[3] = molecular target: T2, human glucagon-like peptide 1 receptor (GLP-1R) (Homo sapiens, UniProt P43220); assay: GLP-1 receptor efficacy assay (cAMP AlphaScreen, CHO cells); format: cell-based; details: Table 1A
T2 construct: expressed in transfected cells
Summary of the method: as §1

[4] = Oral glucose tolerance test (OGTT); format: in vivo, C57BL/6J mice; details: blood glucose AUC 0-120 min, 10 nmol/kg s.c. 4 h before oral glucose 2 g/kg
Experimental: Male C57BL/6J mice were fasted for 10 h before they received an oral glucose bolus of 2 g/kg body weight. Peptides were dissolved in saline buffered with 25 mM phosphate and administered at a dose of 10 nmol/kg body weight by subcutaneous injection 4 h before the glucose bolus. Control animals received a vehicle injection only. Group size was 7 animals per group. A pre-dose and a pre-glucose (0 min) blood sample were obtained by tail bleeding and blood glucose was measured with a glucometer. Additional samples of tail blood for measuring blood glucose were obtained 15 min, 30 min, 60 min, 90 min and 120 min after the glucose challenge. […] Calculation of AUC was done by the trapezoidal rule without baseline correction. The data are presented as mean±S.E.M. Statistical comparisons were conducted by one-way ANOVA followed by Tukey's post test. Vehicle alone was used as a control.

[5] = molecular target: T3, endogenous GLP-1 receptors (Mus musculus, UniProt O35659); assay: Agonistic activity on endogenous GLP-1 receptor (cAMP, murine insulinoma cell line); format: cell-based; details: intracellular cAMP, 15 minutes at 26° C.; read-out: EC50 GLP-1R (murine insulinoma cells)
T3 construct: Agonistic activity of the test compounds on endogenous GLP-1 receptors; endogenous in cells
T3 sequence (O35659 22-463): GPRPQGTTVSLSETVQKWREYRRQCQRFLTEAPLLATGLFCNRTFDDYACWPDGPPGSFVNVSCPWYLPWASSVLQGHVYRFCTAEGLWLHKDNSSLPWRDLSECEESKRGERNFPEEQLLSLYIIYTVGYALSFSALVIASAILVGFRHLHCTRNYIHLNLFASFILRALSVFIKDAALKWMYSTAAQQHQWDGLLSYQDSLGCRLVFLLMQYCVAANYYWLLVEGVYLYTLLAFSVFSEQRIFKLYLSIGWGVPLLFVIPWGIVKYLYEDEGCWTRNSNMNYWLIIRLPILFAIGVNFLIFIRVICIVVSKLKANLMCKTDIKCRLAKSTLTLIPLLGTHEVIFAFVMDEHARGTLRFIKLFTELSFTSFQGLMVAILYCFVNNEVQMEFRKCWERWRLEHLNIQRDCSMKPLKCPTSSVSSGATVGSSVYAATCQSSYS
Summary of the method: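 Murine insulinoma cells were exposed 15 min at 26° C in KRBH with 0.1% DMSO to compound or GLP-1 ([…]), then cAMP was measured by AlphaScreen against a standard curve, in quadruplicate. pEC50 came from curve fits; % CTL was normalised to the maximal GLP-1 cAMP response.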

T2 sequence (P43220 24-463): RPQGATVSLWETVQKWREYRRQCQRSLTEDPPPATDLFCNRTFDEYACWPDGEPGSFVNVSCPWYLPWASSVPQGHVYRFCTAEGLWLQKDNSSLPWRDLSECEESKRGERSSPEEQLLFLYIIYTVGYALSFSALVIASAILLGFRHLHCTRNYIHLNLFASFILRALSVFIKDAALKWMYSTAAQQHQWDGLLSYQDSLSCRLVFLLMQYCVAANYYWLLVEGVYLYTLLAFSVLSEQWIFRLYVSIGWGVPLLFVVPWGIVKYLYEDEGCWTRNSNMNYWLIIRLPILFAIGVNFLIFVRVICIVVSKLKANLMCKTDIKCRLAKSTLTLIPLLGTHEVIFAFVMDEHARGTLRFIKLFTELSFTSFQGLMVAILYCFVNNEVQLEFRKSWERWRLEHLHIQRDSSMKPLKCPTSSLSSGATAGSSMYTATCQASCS
T1 sequence (P47871 26-477): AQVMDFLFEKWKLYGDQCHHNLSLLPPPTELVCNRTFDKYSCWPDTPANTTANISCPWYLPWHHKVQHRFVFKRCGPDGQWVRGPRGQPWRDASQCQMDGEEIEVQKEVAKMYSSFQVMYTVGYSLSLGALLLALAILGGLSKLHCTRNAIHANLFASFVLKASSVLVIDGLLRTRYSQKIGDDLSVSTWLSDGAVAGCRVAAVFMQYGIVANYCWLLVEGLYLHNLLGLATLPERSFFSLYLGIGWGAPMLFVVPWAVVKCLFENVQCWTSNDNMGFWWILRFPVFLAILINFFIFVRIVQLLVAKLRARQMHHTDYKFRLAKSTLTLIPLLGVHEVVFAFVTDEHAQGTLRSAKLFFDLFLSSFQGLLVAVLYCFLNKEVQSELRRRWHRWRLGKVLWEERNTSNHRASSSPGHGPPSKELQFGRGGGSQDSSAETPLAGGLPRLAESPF

- EC50 [1]: 610 pM
- clearance ([2]; IV): 0.157 mL/min/kg
- half-life ([2]; IV): 3.9 h
- Tmax ([2]; SC): 4 h
- bioavailability ([2]; SC): 64%
- MRT ([2]; SC, read-out: Mean Residence Time): 12.5 h
- half-life ([2]; SC): 5 h
- EC50 ([3]; CHO cells expressing human GLP-1-R, cAMP, read-out: EC50 hGLP-1R CHO-K1): 640 pM
- Ratio GLP-1/Glucagon ([3]; EC50 [GLP-1R]/EC50 [Glucagon-R]): 1.05
- EC50 [5]: 1010 pM
Structure (SMILES): CCCCCCCCCCCCCCCC(=O)N[C@@H](CCC(=O)NCCCC[C@H](NC(=O)[C@H](CCC(=O)O)NC(=O)[C@H](CC(=O)O)NC(=O)[C@H](CC(C)C)NC(=O)[C@H](Cc1ccc(O)cc1)NC(=O)[C@H](CCCCN)NC(=O)[C@H](CO)NC(=O)[C@H](Cc1ccc(O)cc1)NC(=O)[C@H](CC(=O)O)NC(=O)[C@H](CO)NC(=O)[C@@H](NC(=O)[C@H](Cc1ccccc1)NC(=O)[C@@H](NC(=O)CNC(=O)[C@H](CCC(N)=O)NC(=O)C(C)(C)NC(=O)[C@@H](N)Cc1c[nH]cn1)[C@@H](C)O)[C@@H](C)O)C(=O)N[C@@H](CCCNC(=N)N)C(=O)N[C@@H](C)C(=O)N[C@@H](CCCCN)C(=O)N[C@@H](CC(=O)O)C(=O)N[C@@H](Cc1ccccc1)C(=O)N[C@H](C(=O)N[C@@H](CCC(=O)O)C(=O)N[C@@H](Cc1c[nH]c2ccccc12)C(=O)N[C@@H](CC(C)C)C(=O)N[C@@H](CC(C)C)C(=O)N[C@@H](CO)C(=O)O)[C@@H](C)CC)C(=O)O [Compound 11, H-H-Aib-QGTFTSDYSKYLDE-K(Hexadecanoyl-isoGlu)-RAKDFIEWLLS-OH] (H-H[Aib]QGTFTSDYSKYLDEK([γGlu-Palmitoyl])RAKDFIEWLLS-OH)
- AUC (% Ctrl) [4]: 61 % Ctrl

From patent US10253081B2, “Glucagon analogues” (Zealand Pharma A/S, priority 2012, dated 2019)
